Experimental findings from US6946475B1, “Anticancer calcium channel blockers” (University of Virginia Patent Foundation, priority 1999, dated 2005) are described below.

Structures are written as SMILES.

For assay [1], the system named is HT-29 (colon cancer cell). Nature of the assay: Measurement of cellular proliferation, HT-29 cells. Format: cell-based. The settings on record: HT-29, 48 hours. How it is done:
(§1) Measurement of cellular proliferation: LNCaP cells at 2.5×10^4/well or PC3 cells at 5×10^4/well, both in a final volume of 100 μl, were plated in triplicate in standard flat bottom 96 well tissue culture plates in the presence of drug or vehicle (DMSO). Unless otherwise indicated, cells were grown for 48 hours at 37° C. in a CO2 incubator. Relative cell growth was determined with the CellTiter 96 aqueous cell proliferation assay (Promega, Madison, Wis.) as described by the manufacturer using an automated plate reader. Results were calculated in a blinded fashion and are means of triplicate determinations.
(§2) For the 48 hour proliferation, cells were cultured with calcium channel antagonists or without calcium channel antagonists. The IC50 values of the calcium channel antagonists were determined.
(§3) Using the measurement cell proliferation assay described hereinabove, the cell lines Jurkat, LNCap (prostate cancer cell), PC-31 (prostate cancer cell), DU145 (prostate cancer cell), MDA-468 (breast cancer cell), MDA-36 (Breast cancer cell), MCF-7 (breast cancer cell), MIA PaCa-2 (pancreatic cancer cell), Hep G2 (liver cancer cell), A549 (non-small cell lung cancer cells), NCI H460 (non-small cell lung cancer cells), HT-29 (colon cancer cell), HCT-116 (colon cancer cell) and SK OV-3 (ovarian cancer cell) were cultured in the presence of TH-1177, TH-1205, TH-1201, TH-2109, TH-2029, TH-2043, TN-2085 and TH-2279.

The subject of assay [2] is HCT-116 (colon cancer cell). Kind of assay: Measurement of cellular proliferation, HCT-116 cells. The settings on record: HCT 116, 48 hours. Type of assay: cell-based. How it is done: as §1, §2, §3
The subject of assay [3] is Ca2+ entry in LNCaP cells. Nature of the assay: Measurement of intracellular Ca2+ concentration (Ca2+ entry), LNCaP cells. Format: cell-based, human. On the procedure: Cells were incubated in growth media containing 1 μM of the acetoxy-methyl ester of the Ca^2+-sensitive fluorescent dye indo-1 (indo-1/AM, Molecular Probes, Eugene, Oreg.) for 1 hour at 37° C. Cells were washed three times in buffer A (10 mM HEPES, pH 7.4, 1 mM MgCl2, 3 mM KCl, 1 mM CaCl2, 140 mM NaCl, 0.1% glucose, 1% fetal bovine serum) and suspended to a final concentration of 10^6/ml. Prior to stimulation, cells were warmed to 37° C. Prior to stimulation, cells were also incubated with drug, calcium channel antagonists and the IC50 values were determined. Changes in [Ca^2+] were monitored in an SLM 8100C spectrofluorometer (SLM/Aminco, Urbana, Ill.) using previously published methods, Haverstick, et al. (1998) Cell Calcium, 23: 361-368; Densmore, et al. (1996) Am. J. Physiol., 271:C1494-1503, incorporated herein by reference.
Calcium influx into the cell is suitably stimulated using either (1) a physiological ligand or (2) an endoplasmic reticulum (ER) ATPase inhibitor. Preferably, a physiological ligand is used to stimulate calcium influx into the cell.
Endoplasmic Reticulum (ER) ATPase inhibitor, as used herein, is any compound which stimulates the release of calcium from the endoplasmic reticulum into the cytoplasm, which, in turn, activates calmodulin, which, in turn, activates calcium entry into the cell (for review of ER ATPase inhibitors, see Thastrup, O, Agents and Actions (1990), 29:8-15; Inesi and Sagara, Archives of Biochem. and Biophys., 298:313-7 and Darby, et al., Biological Signals (1993), 2:293-304). Preferred ER ATPase inhibitors include cyclopiazonic acid (available from Sigma, St. Louis, Mo.) and thapsigargin (available from Sigma).
TH-1177 blocked capacitative Ca^2+ entry in human prostate cancer cells. In electrically non-excitable cells, Ca^2+ influx is triggered by release of Ca^2+ from its internal storage depot by a phenomenon that has been called “capacitative”Ca^2+ entry (Putney, J. W., Jr. (1986) Cell Calcium, 7:1-12; Haverstick, et al. (1993) Mol. Biol. Cell, 4: 173-184; Kohn, et al. Proc. Natl. Acad. Sci. USA, 92: 1307-1311, incorporated herein by reference). Capacitative entry can be initiated by treatment of cells with thapsigargin. Thapsigargin inhibits the Ca^2+-ATPase of the endoplasmic reticulum allowing uncompensated leak of Ca^2+ from this compartment into the cytosol thereby causing Ca^2+ entry in the absence of engagement of a specific receptor. (Thastrup, et al. (1990) Proc. Natl. Acad. Sci. USA, 87: 2466-2470; Takemura, et al. (1989) J. Biol. Chem. 264: 12266-12271, incorporated herein by reference).
The P2 purinergic receptor is linked to activation of the Ca^2+ entry pathway in many types of cells including prostate cancer cells (Fang, et al. (1992) J. Clin. Invest. 89: 191-196). […]

Assay [4] relates to LNCaP prostate cancer cells. Kind of assay: Measurement of cellular proliferation, LNCaP cells. Type of assay: cell-based, human. On the procedure: as §1, §2, §3
The test system of assay [5] is MDA-361 cells (breast cancer cell). Nature of the assay: Measurement of cellular proliferation, MDA-361 cells. The settings on record: MDA-361, 48 hours; read-out: PROLIFERATION IC50 MDA-361. Type of assay: cell-based. On the procedure:
as §1, §2, §3

Assay [6] concerns Hep G2 (liver cancer cell). Kind of assay: Measurement of cellular proliferation, Hep G2 cells. Type of assay: cell-based. The settings on record: Hep G2, 48 hours. How it is done: as §1, §2, §3
Assay [7] has as its system MIA PaCa-2 (pancreatic cancer cell). Kind of assay: Measurement of cellular proliferation, MIA PaCa-2 cells. Type of assay: cell-based. The settings on record: MIA PaCa-2, 48 hours. How it is done:
as §1, §2, §3

Assay [8] relates to MCF-7 (breast cancer cell). Kind of assay: Measurement of cellular proliferation, MCF-7 cells. The settings on record: MCF-7, 48 hours. Type of assay: cell-based. How it is done: as §1, §2, §3
For assay [9], the system named is A549 (non-small cell lung cancer cells). Kind of assay: Measurement of cellular proliferation, A549 cells. Format: cell-based. The settings on record: A549, 48 hours. On the procedure:
as §1, §2, §3

On to `COc1ccc(CCN2CCC[C@H]2COC(c2ccccc2)c2ccc(Cl)cc2)cc1` (some centres unmarked) [TH-1177], for which the IC50 was roughly 100 µM in assay [1]; 37 µM in assay [2]; 3 µM in assay [3] (EGTA chelation of extracellular Ca2+ considered 100% inhibition, read-out: IC50 for blocking Ca2+ entry, LNCaP cells); 4 µM in assay [4] (FIG. 6A, 48 hours, read-out: IC50 for inhibition of LNCaP proliferation); 26 µM in assay [5]; 32 µM in assay [6]. In addition, the IC50 came out at 17 µM in [7], 21 µM in [8] and 71 µM in assay [9]. Moreover, the “Effect on increase in [Ca2+]i stimulated by thapsigargin” value in [3] (LNCaP, 300 nM thapsigargin, drug added before stimulus) is given as “dose dependent inhibition”. For the same compound, the “Effect on rise in [Ca2+]i stimulated by ATP” value in assay [3] (LNCaP, 1 mM ATP, 10 μM TH-1177 added prior) is recorded as “inhibited”. Moreover, in assay [3] (LNCaP, EGTA in medium, 1 mM ATP), the “Effect on release of Ca2+ from the internal storage pool” value is listed as “no effect”. Moreover, the “Cell growth in presence of compound” value in [4] (LNCaP, 1 μM or 3 μM, FIG. 7, growth resumed after removal) was “growth was stopped”. Also, the “Effect of prior treatment on response to second exposure” value in assay [4] (LNCaP, FIG. 8) is given as “no effect”.
